Assay results taken from paper PMC7997578, “Design, Synthesis, Dynamic Docking, Biochemical Characterization, and in Vivo Pharmacokinetics Studies of Novel Topoisomerase II Poisons with Promising Antiproliferative Activity” (Journal of Medicinal Chemistry, 2020).
Where two headings read alike, the source gives them in different places.

Legend:
A549 cells = experiment: cell viability MTT assay, A549; assay type: cell-based, human; conditions: mean ± SD of two experiments, read-out: A549 antiproliferative activity IC50
Procedure: (§1) The antiproliferative activity of all compounds was evaluated in (i) DU145, an androgen-independent prostate cancer cell line; (ii) HeLa, a cervical cancer cell line; and (iii) A549, a lung adenocarcinoma cell line (Table 1). […] Undoubtedly, this preliminary cytotoxicity data will need further characterization, also in relation to the in vitro activity of these compounds.
(§2) Human cancer cell lines A549 (lung adenocarcinoma, ATCC CCL-185), DU-145 (androgen-independent prostate cancer, ATCC HTB-81), and HeLa (cervical carcinoma, ATCC CCL-2) were obtained from ATCC. Cells were routinely grown in minimal essential medium containing Eagle’s salts and L-glutamine supplemented with 10% heat-inactivated FBS in a humidified atmosphere of 5% CO2 at 37 °C. To assess the antiproliferative activity of the compounds, cells were seeded at a density of 2500 cells/well (HeLa) or 5000 cells/well (A549, DU-145) in 96-well plates, and cell viability was measured using the MTT assay as described previously.[39] Values are reported as the mean ± SD of two independent experiments.

[1] = plasma protein binding (rapid equilibrium dialysis), mouse; assay type: in vitro ADME; conditions: pH 7.4
Procedure: 3. Aqueous t herm odynam ic solu bili ty
The thermodynamic solubility of 3f was determined by addition of Phosphate Buffered Saline (PBS) at pH 7. 4 to an exces s of solid compound.
The assay was performed by incubation of an aliquot of 2. 5mg of test compound in 500µL of PBS at pH 7. 4. The suspension was shaken at 300 RPM for 24h at 25°C. At the end of the incubation period, the saturated solution was filtered and analyzed by UPLC/MS for the quantification of dissolved compound (in µM) by UV at a specific wavelength ( λmax of the test compound). The analyses were performed on a Waters ACQUITY UPLC/MS SQD system equipped with an ESI ion source. The analyses were run on an ACQUITY UPLC BEH C 18 column (50x2. 1mmI D, particle size 1. 7µm) with a VanGuard BEH C 18 pr e-column (5x2. 1mmID, particle size 1. 7µm), using H 2O + 0. 1% HCOOH (A) and CH 3CN + 0. 1% HCOOH (B) as mobile phase.
4. Plasm a Protei n Bindi ng
The assay was conducted in triplicate in human and mouse plasma. An appropriate volume of plasma was spiked with a known amount of 10mM DMSO stock solution of the test compound, thus reaching the incubation concentrations of 0. 5, 1 and 5 µM. […] At this point, the supernatants were ready for injections in the UPLC -MS/ MS system. […] Plasma protein binding was calculated applying appropriate corrections to compensate for dilutions during sampling.

human topoIIα = molecular target: T1, human topoIIα (Homo sapiens, UniProt P11388); experiment: topoII decatenation assay (Inspiralis); assay type: biochemical
T1 construct: purchased Inspiralis
T1 sequence (P11388 whole entry): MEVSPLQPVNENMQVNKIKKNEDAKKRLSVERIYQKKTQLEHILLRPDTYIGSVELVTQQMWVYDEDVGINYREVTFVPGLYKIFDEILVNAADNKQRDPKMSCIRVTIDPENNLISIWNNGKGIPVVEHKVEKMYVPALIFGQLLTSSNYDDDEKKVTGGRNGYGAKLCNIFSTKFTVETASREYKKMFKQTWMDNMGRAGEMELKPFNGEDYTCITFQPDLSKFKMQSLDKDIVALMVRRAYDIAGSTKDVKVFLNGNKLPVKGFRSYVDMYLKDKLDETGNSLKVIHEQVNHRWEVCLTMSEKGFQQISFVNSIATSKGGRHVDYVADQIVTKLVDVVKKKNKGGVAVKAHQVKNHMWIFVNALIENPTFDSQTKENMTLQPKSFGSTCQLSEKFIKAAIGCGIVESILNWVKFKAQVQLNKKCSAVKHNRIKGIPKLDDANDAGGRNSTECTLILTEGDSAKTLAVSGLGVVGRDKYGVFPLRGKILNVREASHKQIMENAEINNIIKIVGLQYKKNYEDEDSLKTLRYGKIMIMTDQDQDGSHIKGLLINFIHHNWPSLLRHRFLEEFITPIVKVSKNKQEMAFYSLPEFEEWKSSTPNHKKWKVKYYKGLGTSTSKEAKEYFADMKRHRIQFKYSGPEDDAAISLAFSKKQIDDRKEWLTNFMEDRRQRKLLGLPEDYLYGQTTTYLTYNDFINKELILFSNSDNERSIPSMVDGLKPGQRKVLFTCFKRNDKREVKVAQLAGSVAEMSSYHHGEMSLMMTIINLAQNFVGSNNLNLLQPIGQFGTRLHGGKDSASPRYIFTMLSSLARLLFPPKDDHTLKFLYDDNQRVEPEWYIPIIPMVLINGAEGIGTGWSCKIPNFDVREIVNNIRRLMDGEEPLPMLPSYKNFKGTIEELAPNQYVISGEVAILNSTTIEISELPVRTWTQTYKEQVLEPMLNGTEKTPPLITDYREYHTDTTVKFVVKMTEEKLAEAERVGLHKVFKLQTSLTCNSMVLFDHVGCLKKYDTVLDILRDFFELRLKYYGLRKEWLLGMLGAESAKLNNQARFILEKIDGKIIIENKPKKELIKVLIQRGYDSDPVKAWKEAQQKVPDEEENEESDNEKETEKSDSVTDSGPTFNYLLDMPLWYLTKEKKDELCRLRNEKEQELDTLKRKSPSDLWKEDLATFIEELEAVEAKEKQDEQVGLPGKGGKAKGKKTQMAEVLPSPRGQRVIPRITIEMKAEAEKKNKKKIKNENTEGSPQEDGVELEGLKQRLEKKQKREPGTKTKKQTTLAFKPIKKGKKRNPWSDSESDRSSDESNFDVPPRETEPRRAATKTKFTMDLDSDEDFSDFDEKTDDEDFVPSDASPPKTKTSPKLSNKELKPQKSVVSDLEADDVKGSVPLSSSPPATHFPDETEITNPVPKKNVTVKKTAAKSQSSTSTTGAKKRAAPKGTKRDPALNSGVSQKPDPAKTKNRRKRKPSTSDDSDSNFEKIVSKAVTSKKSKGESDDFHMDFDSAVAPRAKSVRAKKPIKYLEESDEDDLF
Procedure: We measured the inhibitor activity of our new compounds against human topoIIα, using a topoII decatenation assay (Table 1).
The activity of topoIIα was measured using a decatenation assay (Inspiralis) following the manufacturer’s instructions. Compounds were dissolved in DMSO and used at a concentration ranging from 200 to 1 μM. Final DMSO concentration in the assay was ≤1%. Reaction mixtures were incubated for 30 min at 37 °C and terminated with STEB buffer (40% (w/v) sucrose, 100 mM Tris-HCl, pH 8, 1 mM EDTA, 0.5 mg/mL bromophenol blue). Reaction products were resolved by electrophoresis in 1% agarose gels containing SYBR Safe DNA stain (Invitrogen), scanned, and quantified using the ChemiDoc system (BioRad). IC50 values were obtained with GraphPad Prism software (version 5.03) using the band intensities of the dose–response gels. Values are reported as the mean ± SD of two independent experiments.

HeLa cells = experiment: cell viability MTT assay, HeLa; assay type: cell-based, human; conditions: HeLa cervical cancer cells, mean ± SD of two experiments, read-out: HeLa antiproliferative activity IC50
Procedure: as §1, §2

For O=C(Nc1cccc(OC(F)(F)F)c1)c1c(O)n(-c2ccccc2)c(=S)n(-c2ccccc2)c1=O [3f, 6-Hydroxy-4-oxo-1,3-diphenyl-2-thioxo-N-(3-(trifluoromethoxy)phenyl)-1,2,3,4-tetrahydropyrimidine-5-carboxamide], the IC50 (A549 cells; A549 lung adenocarcinoma cells) was 3.1 ± 0.1 µM, the IC50 (A549 cells; Homo sapiens, A549, A549 lung adenocarcinoma cells) was < 5 µM and the fraction unbound at 3 h [1] was < 0.01. For the same compound, the IC50 (human topoIIα; human topoIIα decatenation assay, mean ± SD of two independent experiments, read-out: IC50) was 7.3 ± 1.5 µM, the “fold increased activity compared to ARN16267” value (human topoIIα; topoIIα decatenation IC50 versus ARN16267) was 2 fold and the IC50 (HeLa cells) was 3.8 ± 0.3 µM. The IC50 (HeLa cells; Homo sapiens, HeLa) was < 5 µM.
